# Article PMC12064818, “A general assay platform to study protein pharmacology using ligand-dependent structural dynamics” (Nature Communications, 2025)
# Where two headings read alike, the source gives them in different places.
# Tests used:
# [1] = molecular target: FLuc-C-HiBiT (firefly luciferase) (Photinus pyralis, UniProt P08659, form not given/L550V); assay: SDR assay, FLuc-C-HiBiT; details: SDR max. response, clade S
# P. pyralis FLuc = P. pyralis FLuc (Photinus pyralis, UniProt P08659); assay: FLuc enzymatic luminescence assay, P. pyralis FLuc; type: biochemical; details: FLuc enzymatic assay; for IC50: read-out: IC50 or SDR50 (mM) FLuc E
# Sequence of P. pyralis FLuc (P08659 whole entry): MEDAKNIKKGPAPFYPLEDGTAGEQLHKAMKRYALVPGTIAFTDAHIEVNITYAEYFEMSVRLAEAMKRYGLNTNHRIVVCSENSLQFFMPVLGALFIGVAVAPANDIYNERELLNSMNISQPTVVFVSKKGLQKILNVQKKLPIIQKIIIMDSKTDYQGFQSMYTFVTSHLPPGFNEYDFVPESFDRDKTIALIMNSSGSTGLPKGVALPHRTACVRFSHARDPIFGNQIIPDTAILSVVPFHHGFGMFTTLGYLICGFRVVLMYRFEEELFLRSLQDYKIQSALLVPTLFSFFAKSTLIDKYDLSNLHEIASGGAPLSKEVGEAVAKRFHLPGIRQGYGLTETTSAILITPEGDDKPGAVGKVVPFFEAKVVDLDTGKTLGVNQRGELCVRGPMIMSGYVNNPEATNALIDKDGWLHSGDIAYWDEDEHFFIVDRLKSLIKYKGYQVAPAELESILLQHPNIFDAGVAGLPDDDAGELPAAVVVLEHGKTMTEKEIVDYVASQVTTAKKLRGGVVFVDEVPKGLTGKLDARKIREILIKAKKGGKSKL
# In short: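 Runs with and without 10 µM ATP: compounds were pre-incubated with FLuc (1–10 nM, PBS pH 7.4) at ambient temperature, light-protected, for 30–60 min. Luminescence was imaged 5 min after adding 10 µM D-luciferin (final). Inhibition was scaled between DMSO neutral and no-enzyme controls.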
# [2] = molecular target: FLuc-C-NLuc (firefly luciferase) (Photinus pyralis, UniProt P08659, form not given/L550V); assay: SDR assay, FLuc-C-NLuc; details: - ATP
# Sequence of FLuc-C-NLuc (firefly luciferase) (P08659 2-550 L550V, form open): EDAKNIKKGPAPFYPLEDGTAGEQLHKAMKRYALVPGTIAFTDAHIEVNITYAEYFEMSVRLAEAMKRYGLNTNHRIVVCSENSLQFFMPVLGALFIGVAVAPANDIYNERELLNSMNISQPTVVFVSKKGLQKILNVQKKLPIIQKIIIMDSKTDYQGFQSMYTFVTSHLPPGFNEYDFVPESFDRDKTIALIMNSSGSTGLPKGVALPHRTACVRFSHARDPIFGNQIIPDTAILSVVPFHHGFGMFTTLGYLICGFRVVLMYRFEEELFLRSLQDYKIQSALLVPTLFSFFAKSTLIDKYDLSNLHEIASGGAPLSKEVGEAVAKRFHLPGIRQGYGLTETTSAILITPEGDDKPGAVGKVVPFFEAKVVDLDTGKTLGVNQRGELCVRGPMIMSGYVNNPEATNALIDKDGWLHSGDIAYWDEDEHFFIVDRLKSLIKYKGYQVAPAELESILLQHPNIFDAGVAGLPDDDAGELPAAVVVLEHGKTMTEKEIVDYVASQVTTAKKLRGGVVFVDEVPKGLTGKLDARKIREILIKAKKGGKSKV
# NLuc = molecular target: T1, NLuc (Oplophorus gracilirostris, UniProt Q9GV45, A31E/A60N/A81I/F95D/I117V/K70R/L54V/L99Q/M102K/N193R/P142E/Q151K/Q38R/Q45L/V71I/Y165I); type: biochemical; details: - ATP
# T1 construct: His tag (inferred from IMAC purification); made in house; host or cells: E. coli
# T1 sequence (Q9GV45 other isoform, or with tags, fused parts or gaps with the stated changes): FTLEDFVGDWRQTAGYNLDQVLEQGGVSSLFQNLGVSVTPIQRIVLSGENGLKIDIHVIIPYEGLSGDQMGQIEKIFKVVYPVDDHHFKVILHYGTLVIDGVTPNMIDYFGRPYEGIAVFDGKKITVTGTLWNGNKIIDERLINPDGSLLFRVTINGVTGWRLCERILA
# Procedure: Compounds and controls were added to plates as described in Supplementary Data 8. Nano-Glo luciferase assay reagent (Promega) was prepared fresh according to manufacturer’s protocol, filtered and added at 3 μL per well across assay plates with a BioRaptr2 dispenser. Enzyme was incubated with Nano-Glo reagent for 10 min and NLuc luminescence was read on a ViewLux CCD imager (PerkinElmer), with 1 s exposure with medium gain and 2x binning. Data were normalized to average no enzyme control as 100% enzyme inhibition and average DMSO neutral control. See Supplementary Table 4 for additional details.
# Supplementary Table 4. […]
# Sequence Param eter Value Description […]
# 5 Detector ViewLux Read plate lum inescence (Exposure = 1- 10 sec; Gain = Medium -high; Speed = Slow;
# Dispensing solution was diluted in 1X PBS, pH 7.4.
# NanoLuc luciferase (NLuc) enzym atic lum inescence assay […]
# Nano-Glo luciferase assay reagent (Prom ega, Cat # N1120) prepared according to m anufacturer’s recom m endations,
# 4 com ponents stored at -30 °C until use, and reagent prepared fresh for each assay.
# syringe filter prior to dispense.
# Sequence of FLuc-C-HiBiT (firefly luciferase) (P08659 2-550 L550V, form open): as the sequence (P08659 2-550 L550V, form open) above
compound,measurement,setting,value
O=C(NCCc1ccccc1)C1CCN(C(=O)c2ncn3c2COC(c2ccc(Cl)cc2)C3)CC1 (stereo not shown) [NCGC00449854-01],"% Activity (max response, + ATP)",[1],0.00%
same,"% Activity (max response, - ATP)",[1],0.00%
same,Efficacy (%) FLuc E,P. pyralis FLuc; Clade S follow-up,-25.47%
same,Efficacy (%) FLuc-C-NLuc SDR (-ATP),[2],0.00%
same,Efficacy (%) NLuc (- ATP),NLuc,0.00%
CC(NC(=O)C1CCN(C(=O)c2ncn3c2COC(c2ccc(F)cc2)C3)CC1)c1ccccc1 (stereo not shown) [NCGC00449824-01],"% Activity (max response, + ATP)",[1],0.00%
same,"% Activity (max response, - ATP)",[1],0.00%
same,Efficacy (%) FLuc E,P. pyralis FLuc; Clade S follow-up,-12.35%
same,Efficacy (%) FLuc-C-NLuc SDR (-ATP),[2],0.00%
same,Efficacy (%) NLuc (- ATP),NLuc,0.00%
O=C(NCCC1=CCCCC1)C1CCN(C(=O)c2ncn3c2COC(c2ccc(F)cc2)C3)CC1 (stereo not shown) [NCGC00449811-01],"% Activity (max response, + ATP)",[1],50.67%
same,"% Activity (max response, - ATP)",[1],0.00%
same,pIC50 or pSDR50 FLuc E,P. pyralis FLuc,5.01
same,Efficacy (%) FLuc E,P. pyralis FLuc; Clade S follow-up,-41.16%
same,IC50,P. pyralis FLuc,0.00988 mM
same,Efficacy (%) FLuc-C-NLuc SDR (-ATP),[2],0.00%
same,Efficacy (%) NLuc (- ATP),NLuc,0.00%
O=C(NCC1CCCCC1)C1CCN(C(=O)c2ncn3c2COC(c2ccc(Cl)cc2)C3)CC1 (stereo not shown) [NCGC00449855-01],"% Activity (max response, + ATP)",[1],16.00%
same,"% Activity (max response, - ATP)",[1],0.00%
same,Efficacy (%) FLuc E,P. pyralis FLuc; Clade S follow-up,-13.13%
same,Efficacy (%) FLuc-C-NLuc SDR (-ATP),[2],0.00%
same,Efficacy (%) NLuc (- ATP),NLuc,0.00%
CCc1ccc(NC(=O)C2CCN(C(=O)c3ncn4c3COC(c3ccc(F)cc3)C4)CC2)cc1 (stereo not shown) [NCGC00449925-01],"% Activity (max response, + ATP)",[1],47.34%
same,"% Activity (max response, - ATP)",[1],0.00%
same,Efficacy (%) FLuc E,P. pyralis FLuc; Clade S follow-up,-32.74%
same,pIC50 or pSDR50 FLuc E,P. pyralis FLuc; Clade S follow-up,4.96
same,IC50,P. pyralis FLuc; Clade S follow-up,0.0111 mM
same,Efficacy (%) FLuc-C-NLuc SDR (-ATP),[2],0.00%
same,Efficacy (%) NLuc (- ATP),NLuc,0.00%
COc1ccc(C2Cn3cnc(C(=O)N4CCC(C(=O)NC5CCCCC5)CC4)c3CO2)cc1 (stereo not shown) [NCGC00449860-01],"% Activity (max response, + ATP)",[1],0.00%
same,"% Activity (max response, - ATP)",[1],0.00%
same,Efficacy (%) FLuc E,P. pyralis FLuc; Clade S follow-up,0.00%
same,Efficacy (%) FLuc-C-NLuc SDR (-ATP),[2],0.00%
same,Efficacy (%) NLuc (- ATP),NLuc,0.00%
COc1cccc(CNC(=O)C2CCN(C(=O)c3ncn4c3COC(c3ccccc3)C4)CC2)c1 (stereo not shown) [NCGC00449777-01],"% Activity (max response, + ATP)",[1],322.03%
same,"% Activity (max response, - ATP)",[1],0.00%
same,pIC50 or pSDR50 FLuc E,P. pyralis FLuc,5.26
same,Efficacy (%) FLuc E,P. pyralis FLuc; Clade S follow-up,-78.20%
same,IC50,P. pyralis FLuc,0.00555 mM
same,Efficacy (%) FLuc-C-NLuc SDR (-ATP),[2],0.00%
same,Efficacy (%) NLuc (- ATP),NLuc,0.00%
O=C(NCCCc1ccccc1)C1CCN(C(=O)c2ncn3c2COC(c2ccc(F)cc2)C3)CC1 (stereo not shown) [NCGC00449829-01],"% Activity (max response, + ATP)",[1],29.00%
same,"% Activity (max response, - ATP)",[1],0.00%
same,pIC50 or pSDR50 FLuc E,P. pyralis FLuc,4.96
same,Efficacy (%) FLuc E,P. pyralis FLuc; Clade S follow-up,-36.00%
same,IC50,P. pyralis FLuc,0.0111 mM
same,Efficacy (%) FLuc-C-NLuc SDR (-ATP),[2],0.00%
same,Efficacy (%) NLuc (- ATP),NLuc,-7.00%
CCc1ccc(CNC(=O)C2CCN(C(=O)c3ncn4c3COC(c3ccc(F)cc3)C4)CC2)cc1 (stereo not shown) [NCGC00449815-01],"% Activity (max response, + ATP)",[1],20.00%
same,"% Activity (max response, - ATP)",[1],0.00%
same,Efficacy (%) FLuc E,P. pyralis FLuc; Clade S follow-up,-15.14%
same,Efficacy (%) FLuc-C-NLuc SDR (-ATP),[2],0.00%
same,Efficacy (%) NLuc (- ATP),NLuc,0.00%
O=C(NCc1ccc(F)cc1F)C1CCN(C(=O)c2ncn3c2COC(c2ccccc2)C3)CC1 (stereo not shown) [NCGC00449785-01],"% Activity (max response, + ATP)",[1],291.32%
same,"% Activity (max response, - ATP)",[1],0.00%
same,pIC50 or pSDR50 FLuc E,P. pyralis FLuc,5.06
same,Efficacy (%) FLuc E,P. pyralis FLuc; Clade S follow-up,-69.49%
same,IC50,P. pyralis FLuc,0.0088 mM
same,Efficacy (%) FLuc-C-NLuc SDR (-ATP),[2],0.00%
same,Efficacy (%) NLuc (- ATP),NLuc,0.00%
O=C(NCC1CCCCC1)C1CCN(C(=O)c2ncn3c2COC(c2ccc(F)cc2)C3)CC1 (stereo not shown) [NCGC00449830-01],"% Activity (max response, + ATP)",[1],0.00%
same,"% Activity (max response, - ATP)",[1],0.00%
same,Efficacy (%) FLuc E,P. pyralis FLuc; Clade S follow-up,0.00%
same,Efficacy (%) FLuc-C-NLuc SDR (-ATP),[2],0.00%
same,Efficacy (%) NLuc (- ATP),NLuc,0.00%
COCCCNC(=O)C1CCN(C(=O)c2ncn3c2COC(c2ccc(OC)cc2)C3)CC1 (stereo not shown) [NCGC00449877-01],"% Activity (max response, + ATP)",[1],0.00%
same,"% Activity (max response, - ATP)",[1],0.00%
same,Efficacy (%) FLuc E,P. pyralis FLuc; Clade S follow-up,0.00%
same,Efficacy (%) FLuc-C-NLuc SDR (-ATP),[2],0.00%
same,Efficacy (%) NLuc (- ATP),NLuc,0.00%
